Reference: US20240358693A1, “METHODS OF TREATING PAIN” (Aisa Pharma, Inc., priority 2023, published 2024)

Tested on: participants with SSc-RP
Assay: Scleroderma Health Assessment Questionnaire (SHAQ): disability indices and visual analog scales
Type: in vivo, human
Settings: for SHAQ Visual Analogue Scale - Overall Disease Severity, Median / SHAQ Visual Analogue Scale - Pain, Mean / SHAQ Visual Analogue Scale - Pain, Median / SHAQ Visual Analogue Scale - Raynaud's, Mean / SHAQ Visual Analogue Scale - Raynaud's, Median / SHAQ Visual Analogue Scale - Breathing Problems, Mean / SHAQ Visual Analogue Scale - Breathing Problems, Median / SHAQ Visual Analogue Scale - Finger Ulcers, Mean / SHAQ Visual Analogue Scale - Finger Ulcers, Median / SHAQ Visual Analogue Scale - Intestinal Problems, Mean / SHAQ Visual Analogue Scale - Intestinal Problems, Median / SHAQ Visual Analogue Scale - Overall Disease Severity, Mean: In-Clinic Visit (Day 12), PP Population Part A
Source text: The standard, validated, patient reported outcome measures tool for SSc patients, the Scleroderma Health Assessment Questionnaire (SHAQ), will be used to assess the participant qualify of life. Details are attached in the Appendix. The participant quality of life will be scored, and a disability index calculated for each questionnaire completed by the patient at Screening and each in-clinic visit. The absolute change in participant quality of life from baseline to the end of each dosing period will be calculated similar to frequency data as before.
The SHAQ includes a Raynaud's VAS, which will be reported at screening and each in-clinic visit. The absolute change in Raynaud-VAS, assessed by the participants response to the SHAQ question ‘In the past 7 days, how much have your Raynaud's interfered with your daily activities?’ at baseline and the end of each dosing period will be calculated similar to frequency data as before.
The SHAQ is used to calculate a Disability Index to assess the participant qualify of life. The eight categories assessed by the Disability Index are 1) dressing and grooming, 2) arising, 3) eating, 4) walking, 5) hygiene, 6) reach, 7) grip, and 8) common daily activities. For each of these categories, patients report the amount of difficulty they have in performing two or three specific activities.
There are four possible responses for the Disability Index questions: • Without any difficulty=0 • With some difficulty=1 • With much difficulty=2 • Unable to do=3. • The highest score reported by the patient for any component question of the eight categories determines the score for that category. • If a component question is left blank or the response is too ambiguous to assign a score, then the score for that category is determined by the remaining completed question(s). • If all component questions are blank or if more than one answer is given, then follow up with the respondent is required. • If the respondent's mark is between the response columns, then move it to the closest one. If it's directly between the two, move it to the higher one.
Each of the disability items on the SHAQ has a companion aids/devices variable that is used to record what type(s) of assistance, if any, the participant uses for his/her usual activities. These variables (see below) are coded as follows: • 0=No assistance is needed. • 1=A special device is used by the patient in his/her usual activities. • 2=The patient usually needs help from another person. • 3=The patient usually needs BOTH a special device AND help from another person.
The scoring variables and scoring rules permit the computation of two disability indices, the Standard Disability Index and the Alternative Disability Index.
This question results in a new set of category scores that are computed by adjusting the score for each category, if necessary, based on the patient's use of an aid or device or assistance for that category. If either devices and/or help from another person are checked for a category, the score is set to “2”, unless the score is already “3” (i.e., scores of “0” or “1” are increased to “2”). For example, if the highest score for the dressing category is “1”, and the patient says they use a device for dressing, the computed category score would be “2”. The sum of the computed categories scores is then calculated and divided by the number of categories answered. This gives a score in the 0 to 3 range.
The aid and device variables are not used to calculate the alternative disability index; it is calculated by adding the scores for each of the categories and dividing by the number of categories answered. This gives a score in the 0 to 3 range.
The standard, validated, patient reported outcome measures tool for SSc patients, the SHAQ, was collected at the time points specified in the study schedules (FIG. 2 and FIGS. 4A and 4B) to assess the participant's quality of life. The SHAQ included a Raynaud's VAS that will also be reported separately.

[1] = Pooled Cilnidipine 10 mg and Cilnidipine 10 mg + Tadalafil 5 mg (N = 9)
[2] = Pooled Cilnidipine 10 mg and Cilnidipine 10 mg + Tadalafil 5 mg (N = 9), Subject 01-110 score excluded
[3] = Pooled Cilnidipine 20 mg and Cilnidipine 20 mg + Tadalafil 5 mg (N = 8)
[4] = Modified ITT, Part A, dose Cilnidipine 10 mg, Tadalafil 5 mg, or 10 mg + 5 mg
[5] = Modified ITT, Part A, dose Cilnidipine 20 mg, or 20 mg + Tadalafil 5 mg

COCCOC(=O)C1=C(C)NC(C)=C(C(=O)OC/C=C/c2ccccc2)C1c1cccc([N+](=O)[O-])c1 (stereo not shown) [Cilnidipine, cilnidipine]
SHAQ Visual Analogue Scale - Overall Disease Severity, Median [1]: 1.900
SHAQ Visual Analogue Scale - Pain, Mean [1]: 2.644
SHAQ Visual Analogue Scale - Pain, Median [1]: 2.900
SHAQ Visual Analogue Scale - Raynaud's, Mean [1]: 2.319
SHAQ Visual Analogue Scale - Raynaud's, Median [1]: 2.600
SHAQ Visual Analogue Scale - Breathing Problems, Mean [2]: 1.375
SHAQ Visual Analogue Scale - Breathing Problems, Median [2]: 0.000
SHAQ Visual Analogue Scale - Breathing Problems, Mean [3]: 1.400
SHAQ Visual Analogue Scale - Breathing Problems, Median [3]: 0.450
SHAQ Visual Analogue Scale - Finger Ulcers, Mean [3]: 1.171
SHAQ Visual Analogue Scale - Finger Ulcers, Median [3]: 0.000
SHAQ Visual Analogue Scale - Intestinal Problems, Mean [3]: 1.013
SHAQ Visual Analogue Scale - Intestinal Problems, Median [3]: 0.100
SHAQ Visual Analogue Scale - Overall Disease Severity, Mean [3]: 1.938
SHAQ Visual Analogue Scale - Overall Disease Severity, Median [3]: 1.300
SHAQ Visual Analogue Scale - Pain, Mean [3]: 2.288
SHAQ Visual Analogue Scale - Pain, Median [3]: 2.100
SHAQ Visual Analogue Scale - Raynaud's, Mean [3]: 1.688
SHAQ Visual Analogue Scale - Raynaud's, Median [3]: 0.850
SHAQ Visual Analogue Scale - Breathing Problems, Mean (Pooled Cilnidipine (N = 8)): 1.213
SHAQ Visual Analogue Scale - Breathing Problems, Median (Pooled Cilnidipine (N = 8)): 0.200
SHAQ Visual Analogue Scale - Finger Ulcers, Mean (Pooled Cilnidipine (N = 8)): 0.463
SHAQ Visual Analogue Scale - Finger Ulcers, Median (Pooled Cilnidipine (N = 8)): 0.000
SHAQ Visual Analogue Scale - Intestinal Problems, Mean (Pooled Cilnidipine (N = 8)): 0.975
SHAQ Visual Analogue Scale - Intestinal Problems, Median (Pooled Cilnidipine (N = 8)): 0.300
SHAQ Visual Analogue Scale - Overall Disease Severity, Mean (Pooled Cilnidipine (N = 8)): 1.475
SHAQ Visual Analogue Scale - Overall Disease Severity, Median (Pooled Cilnidipine (N = 8)): 1.300
SHAQ Visual Analogue Scale - Pain, Mean (Pooled Cilnidipine (N = 8)): 1.875
SHAQ Visual Analogue Scale - Pain, Median (Pooled Cilnidipine (N = 8)): 1.550
SHAQ Visual Analogue Scale - Raynaud's, Mean (Pooled Cilnidipine (N = 8)): 1.900
SHAQ Visual Analogue Scale - Raynaud's, Median (Pooled Cilnidipine (N = 8)): 1.250
SHAQ Finger Ulcers, Baseline, Mean [4]: 0.700
SHAQ Finger Ulcers, Baseline, Median [4]: 0.500
SHAQ Finger Ulcers, In Clinic Visit (Day 12), Mean [4]: 0.275
SHAQ Finger Ulcers, In Clinic Visit (Day 12), Median [4]: 0.000
SHAQ Standard disability index, Baseline, Mean [4]: 0.656
SHAQ Standard disability index, Baseline, Median [4]: 0.563
SHAQ Standard disability index, In Clinic Visit (Day 12), Mean [4]: 0.656
SHAQ Standard disability index, In Clinic Visit (Day 12), Median [4]: 0.563
SHAQ Visual Analog Scale-Breathing Problems, Baseline, Mean [4]: 1.875
SHAQ Visual Analog Scale-Breathing Problems, Baseline, Median [4]: 0.000
SHAQ Visual Analog Scale-Breathing Problems, In Clinic Visit (Day 12), Mean [4]: 1.575
SHAQ Visual Analog Scale-Breathing Problems, In Clinic Visit (Day 12), Median [4]: 0.000
SHAQ Visual Analog Scale-Intestinal Problems, Baseline, Mean [4]: 2.975
SHAQ Visual Analog Scale-Intestinal Problems, Baseline, Median [4]: 2.550
SHAQ Visual Analog Scale-Intestinal Problems, In Clinic Visit (Day 12), Mean [4]: 1.100
SHAQ Visual Analog Scale-Intestinal Problems, In Clinic Visit (Day 12), Median [4]: 0.300
SHAQ Visual Analog Scale-Pain, Baseline, Mean [4]: 1.975
SHAQ Visual Analog Scale-Pain, Baseline, Median [4]: 2.150
SHAQ Visual Analog Scale-Pain, In Clinic Visit (Day 12), Mean [4]: 1.875
SHAQ Visual Analog Scale-Pain, In Clinic Visit (Day 12), Median [4]: 1.950
SHAQ Visual Analog Scale-Raynaud's, Baseline, Mean [4]: 1.600
SHAQ Visual Analog Scale-Raynaud's, Baseline, Median [4]: 1.000
SHAQ Visual Analog Scale-Raynaud's, In Clinic Visit (Day 12), Mean [4]: 1.925
SHAQ Visual Analog Scale-Raynaud's, In Clinic Visit (Day 12), Median [4]: 1.700
SHAQ alternative disability index, Baseline, Mean [4]: 0.500
SHAQ alternative disability index, Baseline, Median [4]: 0.438
SHAQ alternative disability index, In Clinic Visit (Day 12), Mean [4]: 0.563
SHAQ alternative disability index, In Clinic Visit (Day 12), Median [4]: 0.500
SHAQ Finger Ulcers, Baseline, Mean [5]: 1.800
SHAQ Finger Ulcers, Baseline, Median [5]: 0.300
